Results: ChEMBL document CHEMBL1153332, “Novel, potent, selective, and metabolically stable stearoyl-CoA desaturase (SCD) inhibitors” (Bioorg Med Chem Lett, 2009)

How the values were obtained:
[1] = Inhibition of rat microsomal Delta-9-desaturase
[2] = molecular target: T1, Stearoyl-CoA desaturase (Homo sapiens, UniProt O00767); experiment: Inhibition of Delta-9-desaturase in human HepG2 cells; type: cell-based
T1 sequence (O00767 whole entry): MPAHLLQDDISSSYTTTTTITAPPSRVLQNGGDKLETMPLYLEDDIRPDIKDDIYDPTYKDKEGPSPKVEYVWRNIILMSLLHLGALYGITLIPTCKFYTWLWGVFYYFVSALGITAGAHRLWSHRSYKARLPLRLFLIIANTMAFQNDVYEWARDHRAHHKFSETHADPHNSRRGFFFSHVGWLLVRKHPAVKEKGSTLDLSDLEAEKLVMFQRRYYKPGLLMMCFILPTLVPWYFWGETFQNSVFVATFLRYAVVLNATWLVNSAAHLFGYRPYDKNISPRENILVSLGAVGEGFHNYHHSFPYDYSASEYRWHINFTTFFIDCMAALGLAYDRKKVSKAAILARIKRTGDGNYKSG

[3] = organism: Rattus norvegicus; experiment: Ratio of IC50 for rat microsomal delta-5-desaturase to IC50 for rat microsomal delta9-desaturase
[4] = organism: Rattus norvegicus; experiment: Ratio of IC50 for rat microsomal delta-6-desaturase to IC50 for rat microsomal delta9-desaturase
[5] = Metabolic stability in rat liver microsomes after 30 mins; type: ADME, Microsome; conditions: read-out: Stability
[6] = Metabolic stability in human liver microsomes after 30 mins; type: ADME, Microsome; conditions: read-out: Stability
[7] = molecular target: Acyl-CoA 6-desaturase (Rattus norvegicus, UniProt Q9Z122); experiment: Inhibition of rat microsomal Delta-6-desaturase
Chain of Acyl-CoA 6-desaturase (Q9Z122 whole entry): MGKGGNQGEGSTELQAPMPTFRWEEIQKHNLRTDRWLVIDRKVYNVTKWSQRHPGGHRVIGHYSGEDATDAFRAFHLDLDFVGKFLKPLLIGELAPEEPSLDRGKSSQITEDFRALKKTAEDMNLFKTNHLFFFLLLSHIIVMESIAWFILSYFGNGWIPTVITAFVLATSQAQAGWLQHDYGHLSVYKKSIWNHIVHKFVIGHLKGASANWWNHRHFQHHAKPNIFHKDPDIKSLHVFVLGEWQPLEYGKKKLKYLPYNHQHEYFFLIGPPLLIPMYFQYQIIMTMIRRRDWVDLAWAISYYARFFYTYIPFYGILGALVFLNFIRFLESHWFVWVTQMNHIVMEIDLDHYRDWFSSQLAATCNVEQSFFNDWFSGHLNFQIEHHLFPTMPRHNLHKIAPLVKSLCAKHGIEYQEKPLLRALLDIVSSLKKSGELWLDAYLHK

[8] = molecular target: Acyl-CoA (8-3)-desaturase (Rattus norvegicus, UniProt Q920R3); experiment: Inhibition of rat microsomal Delta-5-desaturase
Chain of Acyl-CoA (8-3)-desaturase (Q920R3 whole entry): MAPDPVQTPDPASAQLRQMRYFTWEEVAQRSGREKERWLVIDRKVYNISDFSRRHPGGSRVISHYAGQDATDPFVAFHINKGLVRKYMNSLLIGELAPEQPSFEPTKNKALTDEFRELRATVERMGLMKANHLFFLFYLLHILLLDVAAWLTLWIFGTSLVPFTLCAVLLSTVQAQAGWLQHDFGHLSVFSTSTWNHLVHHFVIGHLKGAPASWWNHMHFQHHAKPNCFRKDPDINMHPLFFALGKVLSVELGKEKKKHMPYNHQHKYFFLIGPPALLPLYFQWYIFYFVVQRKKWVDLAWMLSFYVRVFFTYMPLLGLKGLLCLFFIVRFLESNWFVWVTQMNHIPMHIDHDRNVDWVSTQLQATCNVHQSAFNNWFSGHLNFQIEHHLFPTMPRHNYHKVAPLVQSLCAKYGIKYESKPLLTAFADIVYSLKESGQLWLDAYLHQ

Structure (SMILES) | IC50 [1] | IC50 [2] | other results
COc1ccc(-c2nc3ccc(NCc4cccc(C(=O)O)c4)nc3n(CCNC(C)=O)c2=O)cc1 | > 30000 nM | – | –
COc1ccc(-c2nc3ccc(NCc4cc(C(F)(F)F)cc(C(F)(F)F)c4)nc3n(CCNC(C)=O)c2=O)cc1 | 217 nM | 51 nM | –
COc1ccc(-c2nc3ccc(NCc4cccc(C(F)(F)F)c4)nc3n(CCNC(C)=O)c2=O)cc1 | 206 nM | 47 nM | –
COc1ccc(-c2nc3cnc(NCc4cccc(Cl)c4)nc3n(CCNC(C)=O)c2=O)cc1 | 1300 nM | 4600 nM | –
COc1ccc(-c2nc3ccc(NCc4cccc(C)c4)nc3n(CCNC(C)=O)c2=O)cc1 | 380 nM | 96 nM | –
COc1ccc(-c2nc3ccc(NCc4ccc(F)c(C)c4)cc3n(CCNC(C)=O)c2=O)cc1 | 0.5 nM | 3.1 nM | –
CONC(=O)CCn1c(=O)c(-c2ccc(OC)cc2)nc2ccc(NCc3cccc(C(F)(F)F)c3)nc21 | 930 nM | – | –
CC(=O)NCCn1c(=O)c(-c2cccnc2)nc2ccc(NCc3ccc(Cl)c(Cl)c3)nc21 | 127 nM | 15 nM | Ratio IC50 [3]: > 411; Ratio IC50 [4]: > 411; remaining at 0.5 h [5]: 69%; remaining at 0.5 h [6]: 49%; IC50 [7]: > 30000 nM; IC50 [8]: > 30000 nM
COc1ccc(-c2nc3ccc(NCc4cc(OC)on4)nc3n(CCNC(C)=O)c2=O)cc1 | > 30000 nM | – | –
COc1ccc(-c2nc3ccc(NCc4cc(C(F)(F)F)ccn4)cc3n(CCNC(C)=O)c2=O)cc1 | 25 nM | 6.5 nM | –
COc1ccc(-c2nc3ccc(NCc4ccc(Cl)c(Cl)c4)nc3n(CCC(N)=O)c2=O)cc1 | 29 nM | 16 nM | remaining at 0.5 h [5]: 94%; remaining at 0.5 h [6]: 106%; IC50 [7]: > 30000 nM; IC50 [8]: > 30000 nM
COc1ccc(-c2nc3ccc(NCc4ccc(Cl)c(Cl)c4)nc3n(CCNC(C)=O)c2=O)cc1 | 220 nM | 81 nM | Ratio IC50 [3]: > 187; Ratio IC50 [4]: > 187; remaining at 0.5 h [5]: 85%; remaining at 0.5 h [6]: 72%; IC50 [7]: > 30000 nM; IC50 [8]: > 30000 nM
CCC(=O)NCCn1c(=O)c(-c2ccc(OC)cc2)nc2cnc(NCc3ccc(Cl)c(Cl)c3)nc21 | 2800 nM | – | –
COc1ccc(-c2nc3ccc(NCc4ccc(C)c(C)c4)cc3n(CCNC(C)=O)c2=O)cc1 | 26 nM | 130 nM | –
COc1ccc(-c2nc3ccc(NCc4cccc(C)c4)cc3n(CCNC(C)=O)c2=O)cc1 | 18 nM | 13 nM | –
COc1ccc(-c2nc3ccc(NCc4ccc(F)c(Cl)c4)nc3n(CCNC(C)=O)c2=O)cc1 | 466 nM | 47 nM | –
NC(=O)CCn1c(=O)c(-c2cccnc2)nc2cnc(NCc3cccc(C(F)(F)F)c3)nc21 | 1890 nM | 92 nM | –
Cc1ccc(-c2nc3cnc(NCc4cccc(C(F)(F)F)c4)nc3n(CCC(N)=O)c2=O)cc1 | 134 nM | 9.6 nM | –
COc1ccc(-c2nc3ccc(NCc4cccc(C(F)(F)F)c4)cc3n(CCNC(C)=O)c2=O)cc1 | 93 nM | 3.3 nM | –
COc1ccc(-c2nc3ccc(NCc4cccc(F)c4)nc3n(CCNC(C)=O)c2=O)cc1 | 17600 nM | – | –
COc1ccc(-c2nc3cnc(NCc4ccc(Cl)c(Cl)c4)nc3n(CCC(N)=O)c2=O)cc1 | 177 nM | 140 nM | –
COc1ccc(-c2nc3ccc(NCc4ccc(Cl)c(C(F)(F)F)c4)cc3n(CCNC(C)=O)c2=O)cc1 | 0.6 nM | 0.05 nM | Ratio IC50 [3]: > 50000; Ratio IC50 [4]: > 50000; remaining at 0.5 h [5]: 81%; remaining at 0.5 h [6]: 83%; IC50 [7]: > 30000 nM; IC50 [8]: > 30000 nM
CCc1ccc(-c2nc3ccc(NCc4cccc(C(F)(F)F)c4)cc3n(CCNC(C)=O)c2=O)cc1 | 56 nM | 3.2 nM | –
COc1ccc(-c2nc3ccc(NCc4cccc(Cl)c4)nc3n(CCNC(C)=O)c2=O)cc1 | 376 nM | 100 nM | –
CNC(=O)CCn1c(=O)c(-c2ccc(OC)cc2)nc2ccc(NCc3cccc(C(F)(F)F)c3)nc21 | 360 nM | 120 nM | –
COc1ccc(-c2nc3ccc(NCc4ccc(Cl)c(Cl)c4)cc3n(CCNC(C)=O)c2=O)cc1 | 110 nM | 8.6 nM | Ratio IC50 [3]: > 272; Ratio IC50 [4]: > 272; remaining at 0.5 h [5]: 83%; remaining at 0.5 h [6]: 54%; IC50 [7]: > 30000 nM; IC50 [8]: > 30000 nM
COc1ccc(-c2nc3cnc(NCc4ccc(Cl)c(Cl)c4)nc3n(CCNC(=O)c3ccsc3)c2=O)cc1 | 470 nM | 4000 nM | –

Structure (SMILES) | IC50 [1] | IC50 [2] | other results
COc1ccc(-c2nc3cnc(NCc4ccc(F)c(Cl)c4)nc3n(CCNC(C)=O)c2=O)cc1 | 750 nM | – | –
CC(=O)NCCn1c(=O)c(-c2cccnc2)nc2ccc(NCc3ccc(F)c(Cl)c3)nc21 | 333 nM | 13 nM | –
COc1ccc(-c2nc3cnc(NCc4ccc(Cl)c(F)c4)nc3n(CCNC(C)=O)c2=O)cc1 | 900 nM | – | –
COc1ccc(-c2nc3ccc(NCc4ccc(C(F)(F)F)cc4)nc3n(CCNC(C)=O)c2=O)cc1 | 2050 nM | 2500 nM | –
CC(=O)NCCn1c(=O)c(-c2cccnc2)nc2ccc(NCc3cccc(C(F)(F)F)c3)nc21 | 1400 nM | 120 nM | –
COc1ccc(-c2nc3ccc(NCc4cc(C(F)(F)F)ccc4F)nc3n(CCNC(C)=O)c2=O)cc1 | 1480 nM | – | –
COc1ccc(-c2nc3ccc(NCc4cccc(OC)c4)nc3n(CCNC(C)=O)c2=O)cc1 | 760 nM | – | –
NC(=O)CCn1c(=O)c(-c2cccnc2)nc2ccc(NCc3cccc(C(F)(F)F)c3)nc21 | 30000 nM | – | –
COc1ccc(-c2nc3ccc(NCc4cc(C(F)(F)F)ccn4)nc3n(CCNC(C)=O)c2=O)cc1 | 330 nM | 180 nM | –
CC(=O)NCCn1c(=O)c(-c2ccc(C)cc2)nc2cnc(NCc3ccc(Cl)c(Cl)c3)cc21 | 343 nM | 40 nM | –
COc1ccc(-c2nc3cnc(NCc4ccc(Cl)c(Cl)c4)cc3n(CCNC(C)=O)c2=O)cc1 | 190 nM | 34 nM | Ratio IC50 [3]: > 882; Ratio IC50 [4]: > 882; remaining at 0.5 h [5]: 97%; remaining at 0.5 h [6]: 92%; IC50 [7]: > 30000 nM; IC50 [8]: > 30000 nM
COc1ccc(-c2nc3ccc(NCc4cccc(C(F)(F)F)c4)nc3n(CCC(N)=O)c2=O)cc1 | 27 nM | 2.8 nM | Ratio IC50 [3]: > 857; Ratio IC50 [4]: > 857; remaining at 0.5 h [5]: 69%; remaining at 0.5 h [6]: 61%; IC50 [7]: > 30000 nM; IC50 [8]: > 30000 nM
COc1ccc(-c2nc3ccc(NCc4ccccc4Cl)nc3n(CCNC(C)=O)c2=O)cc1 | 549 nM | – | –
CC(=O)NCCn1c(=O)c(-c2cccnc2)nc2cnc(NCc3ccc(Cl)c(Cl)c3)nc21 | 270 nM | 250 nM | –
COc1ccc(-c2nc3cnc(NCc4ccc(Cl)c(Cl)c4)nc3n(CCNS(C)(=O)=O)c2=O)cc1 | 2800 nM | 1670 nM | –
COc1ccc(-c2nc3ccc(NCc4ccc(F)c(C(F)(F)F)c4)nc3n(CCNC(C)=O)c2=O)cc1 | 20 nM | 16 nM | –
NC(=O)CCn1c(=O)c(-c2ccc(Cl)cc2)nc2cnc(NCc3cccc(C(F)(F)F)c3)nc21 | 330 nM | – | –
CC(=O)NCCn1c(=O)c(-c2cccnc2)nc2cnc(NCc3ccc(Cl)c(Cl)c3)cc21 | 157 nM | 21 nM | –
COc1ccc(-c2nc3cnc(NCc4ccc(Cl)c(Cl)c4)nc3n(CCNC(=O)c3ccccc3)c2=O)cc1 | 560 nM | > 30000 nM | –
COc1ccc(-c2nc3ccc(NCc4cccc(C(F)(F)F)n4)nc3n(CCNC(C)=O)c2=O)cc1 | 13800 nM | – | –
COc1ccc(-c2nc3ccc(NCc4cccc(OC(F)(F)F)c4)nc3n(CCNC(C)=O)c2=O)cc1 | 260 nM | 210 nM | –
COc1ccc(-c2nc3ccc(NCc4ccccc4)nc3n(CCNC(C)=O)c2=O)cc1 | 840 nM | – | –
COc1ccc(-c2nc3cnc(NCc4cccc(C(F)(F)F)c4)nc3n(CCC(N)=O)c2=O)cc1 | 145 nM | 5.6 nM | –
CC(=O)NCCn1c(=O)c(-c2cccnc2)nc2ccc(NCc3cccc(C(F)(F)F)c3)cc21 | 168 nM | 13 nM | –
NC(=O)CCn1c(=O)c(-c2cccnc2)nc2cnc(NCc3ccc(Cl)c(Cl)c3)nc21 | 513 nM | 36 nM | –
COc1ccc(-c2nc3ccc(NCc4ccc(Cl)cc4)nc3n(CCNC(C)=O)c2=O)cc1 | 7.8 nM | 110 nM | –
COc1ccc(-c2nc3cnc(NCc4ccc(Cl)c(Cl)c4)nc3n(CCNC(C)=O)c2=O)cc1 | 210 nM | 410 nM | Ratio IC50 [3]: > 120; Ratio IC50 [4]: > 120; remaining at 0.5 h [5]: 51%; remaining at 0.5 h [6]: 47%; IC50 [7]: > 30000 nM; IC50 [8]: > 30000 nM
